Earlier results as cited in patent US20210227865A1, “LOW GLYCEMIC COMPOSITION AND METHODS OF MAKING AND USING THEREOF” (Seattle Gummy Company, priority 2018, published 2021).

What was measured:
[1] = in vivo
[2] = FIG. 3 (trehalose), FIG. 4 (isomaltulose)
[3] = for sweetness compared with sucrose (in words): relative to sucrose (table sugar)

Row | Compound | GI value [1] | sweetness compared with sucrose (in words) [3] | further results
1 | OC[C@H]1O[C@H](OC[C@H]2OC(O)(CO)[C@@H](O)[C@@H]2O)[C@H](O)[C@@H](O)[C@@H]1O (stereo partly drawn) [Isomaltulose, isomaltulose] | about 30 |  | effect on blood glucose levels (in words) [2]: does not cause a spike in glucose levels
2 | O=C(CO)[C@H](O)[C@H](O)[C@H](O)CO [Psicose, psicose] |  | identical to sucrose | sweetness relative to sucrose ([3]; relative to sucrose): 70%
3 | O=C(CO)[C@H](O)[C@@H](O)[C@H](O)CO [Sorbose, sorbose] |  | equivalent to sucrose in sweetness | 
4 | O=C(CO)[C@@H](O)[C@@H](O)[C@H](O)CO [Tagatose, tagatose] |  | nearly as sweet as sucrose | 
5 | O=C(CO)[C@@H](O)[C@H](O)[C@H](O)CO [fructose] | 19 |  | 
6 | OC[C@H]1O[C@@](CO)(O[C@H]2O[C@H](CO)[C@@H](O)[C@H](O)[C@H]2O)[C@@H](O)[C@@H]1O [sucrose] | 63 |  | 
7 | OC[C@H]1O[C@H](O[C@H]2O[C@H](CO)[C@@H](O)[C@H](O)[C@H]2O)[C@H](O)[C@@H](O)[C@@H]1O [trehalose] |  |  | effect on blood glucose levels (in words) [2]: does not cause a spike in glucose levels
